How the values were obtained:
BALB/c mice = assay: etoposide-induced fatigue model (CTRF animal model), activity, weight and blood chemistry; assay type: in vivo
Protocol: An animal model has been developed to screen for drugs which are efficacious in the treatment, alleviation and/or prevention of chronic fatigue syndrome, such as cancer treatment-related fatigue (“CTRF”). […] The animal's overall activity is measured using a running wheel or other method. In addition, the animal's day and night activity profiles are measured to determine when disrupted sleep architecture is present. This is characterized by disruption of the REM sleep as well as fatigue and cognitive dysfunction. The animal's percent daily weight change is also determined. The levels of cytokines such as IL-6 can be measured, since these are typically elevated with chemotherapy treatment. Results can be provided as percent change of total activity, percent change relative to light exposure, percent weight change over a defined time period (day, week), and combinations thereof.
The model can be created using any one of a number of different drugs, alone or in combination with additional therapy, such as one or more other chemotherapeutics or radiation. The in vitro and in vivo models described above can be used to identify compounds that effectively treat CTRF. In one embodiment, etoposide is administered in a dosage of 50 to 60 mg/kg to cause CTRF. In this study etoposide was administered by a single intraperitoneal injection on the first day of the study.
For the etoposide-induced fatigue model (FIGS. 2-7), BALB/c mice (obtained and housed as described above) were divided into groups of 10 animals per group: 1. control (untreated) mice, 2. mice treated with a single intraperitoneal dose of 60 mg/kg etoposide on day 1, and 3. mice treated with a single intraperitoneal dose of 60 mg/kg etoposide on day 1, followed by daily oral doses of pentoxifylline administered as a 1 mg/kg dose in the drinking water throughout the study. The animals were then assessed for their level of activity relative to time of day (day and night); total locomotor activity; blood chemistry (hemoglobin, red blood cells, white blood cells); over time in weeks.

IL-6 = IL-6 levels in etoposide-treated animals; assay type: in vivo, mice; details: increasing etoposide dosing (0, 50 or 60 mg/kg); FIG. 3
Protocol: An animal model has been developed to screen for drugs which are efficacious in the treatment, alleviation and/or prevention of chronic fatigue syndrome, such as cancer treatment-related fatigue (“CTRF”). […] The animal's overall activity is measured using a running wheel or other method. In addition, the animal's day and night activity profiles are measured to determine when disrupted sleep architecture is present. This is characterized by disruption of the REM sleep as well as fatigue and cognitive dysfunction. The animal's percent daily weight change is also determined. The levels of cytokines such as IL-6 can be measured, since these are typically elevated with chemotherapy treatment. […]
For the etoposide-induced fatigue model (FIGS. 2-7), BALB/c mice (obtained and housed as described above) were divided into groups of 10 animals per group: 1. control (untreated) mice, […], […], followed by daily oral doses of pentoxifylline administered as a 1 mg/kg dose in the drinking water throughout the study. The animals were then assessed for their level of activity relative to time of day (day and night); total locomotor activity; blood chemistry (hemoglobin, red blood cells, white blood cells); over time in weeks.

female BALB/c mice = assay: LPS-induced fatigue model, daily activity counts; assay type: in vivo; details: single intraperitoneal dose of 2.5 mg/kg lipopolysaccharide vs saline control; FIG. 1
Protocol: For the LPS-induced fatigue model shown in FIG. 1, […], female BALB/c mice were obtained from Charles River Laboratories (Wilmington, Mass.). The mice were randomized into 2 groups of 10 prior to treatment. Animals were housed 5 per cage in micro-isolators and allowed to acclimatize for 4 days prior to dosing. Animal were given food and water ad libitum with a 12 hour light/12 hour dark schedule.
Animals in the control group were initially injected intraperitoneally with saline. Animals in the LPS group were injected intraperitoneally with a single dose of 2.5 mg/kg lipopolysaccharide on dayl.

[1] = etoposide, over time in days, FIG. 5

For `CC(=O)CCCCn1c(=O)c2c(ncn2C)n(C)c1=O` [Pentoxifylline], the total locomotor activity (BALB/c mice; animals treated with 60 mg etoposide/kg, then daily oral pentoxifylline 1 mg/kg in drinking water, FIG. 6) was “improves activity”, the “12 hour dark activity over time (weeks)” value (BALB/c mice; etoposide treated followed by pentoxifylline 1 mg/kg daily oral vs etoposide treated and untreated control, FIG. 7A) was “significantly increase nocturnal activity” and the “12 hour light activity over time (weeks)” value (BALB/c mice; etoposide treated followed by pentoxifylline 1 mg/kg daily oral vs etoposide treated and untreated control, FIG. 7B) was “decrease activity when animals should be sleeping”.
For `COc1cc([C@@H]2c3cc4c(cc3[C@@H](O[C@@H]3O[C@@H]5CO[C@@H](C)O[C@H]5[C@H](O)[C@H]3O)[C@H]3COC(=O)[C@H]23)OCO4)cc(OC)c1O` [etoposide], the “total locomotor activity over time (weeks)” value (BALB/c mice; 60 mg etoposide/kg single intraperitoneal dose, FIG. 2) was “decreased total activity over time of treatment”, the “fatigue (percent of baseline) over time (weeks)” value (BALB/c mice; 60 mg etoposide/kg, 12 hour dark cycle or 12 hour light cycle, FIG. 4) was “decreased activity” and the “activity counts (shift of circadian rhythm)” value (BALB/c mice; [1]) was “decreased activity, which was more pronounced during the evening”. The “percent daily weight change (shift of circadian rhythm)” value (BALB/c mice; [1]) was “weight loss”, the “dependence of the observed results on anemia (blood chemistry)” value (BALB/c mice; mice treated with etoposide) was “independent of anemia” and the “levels of IL-6” value (IL-6) was “increased levels of IL-6”.
With lipopolysaccharide [LPS] the “total daily activity (counts/group) per day” value (female BALB/c mice) was “decreased activity indicative of fatigue”.
